Laboratory results taken from patent US20240166652A1, “MODULATORS OF THE INTEGRATED STRESS PATHWAY” (Calico Life Sciences LLC, priority 2017, published 2024).

Tested on: ATF4 luciferase reporter in HEK293T cells
Assay: ATF4-Luc assay (ATF4 luciferase reporter, tunicamycin-treated HEK293T cells)
Type: cell-based, human
Details: Homo sapiens, HEK-293T; HEK293T cells carrying the ATF4 luciferase reporter, 1 μg/mL tunicamycin, 7 hours

SMILES	EC50 [nM]
O=C(COCc1ccc(F)cc1)NC12CC(NC(=O)COc3ccc(Cl)c(F)c3)(C1)C2 [Compound 142, 2-(4-chloro-3-fluorophenoxy)-N-(3-{2-[(4-fluorophenyl)methoxy]acetamido}-bicyclo[1.1.1]pentan-1-yl)acetamide]	10 to 50
O=C(COc1ccc(Cl)c(F)c1)NC12CCC(NC(=O)COc3ccc(Cl)c(F)c3)(CC1)C(=O)N2 [Compound 603, N,N′-(3-oxo-2-azabicyclo[2.2.2]octane-1,4-diyl)bis[2-(4-chloro-3-fluorophenoxy)acetamide]]	< 10
CN(CCC(=O)O)C1CC2(NC(=O)COc3ccc(Cl)c(F)c3)CCC1(NC(=O)COc1ccc(Cl)c(F)c1)CC2 (stereo not drawn) [Compound 698, 3-[{1,4-bis[2-(4-chloro-3-fluorophenoxy)acetamido]bicyclo[2.2.2]octan-2-yl}(methyl)amino]propanoic Acid]	250 to 500
O=C(COc1ccc(Cl)c(F)c1)NC12CCC(NC(CCOc3ccc(Cl)cc3)C(=O)O)(CC1)C[C@@H]2O (stereo partly drawn) [Compound 706, 2-({(3S)-4-[2-(4-chloro-3-fluorophenoxy)acetamido]-3-hydroxybicyclo[2.2.2]octan-1-yl}amino)-4-(4-chlorophenoxy)butanoic acid]	250 to 500
O=C(COc1ccc(Cl)c(Cl)c1)NC12CC(NCCOc3ccc(Cl)c(Cl)c3)(C1)C2 [Compound 125, 2-(3,4-dichlorophenoxy)-N-(3-{[2-(3,4-dichlorophenoxy)ethyl]amino}-bicyclo[1.1.1]pentan-1-yl)acetamide]	< 10
O=C(COc1cc(F)c2cn[nH]c2c1)NC12CCC(NC(=O)COc3ccc(C(F)(F)F)nc3)(CC1)[C@@H](O)C2 [Compound 720]	< 10
O=C(COc1ccc(Cl)cc1)NC12CC(NC(=O)COc3cccc(F)c3)(C1)C2 [Compound 119, 2-(4-chlorophenoxy)-N-{3-[2-(3-fluorophenoxy)acetamido]-bicyclo[1.1.1]pentan-1-yl}acetamide]	50 to 250
O=C(COc1ccc(Cl)c(CO)c1)NC12CC(NC(=O)COc3ccc4c(c3)OC(F)(F)O4)(C1)C2 [Compound 276, 2-[4-chloro-3-(hydroxymethyl)phenoxy]-N-(3-{2-[(2,2-difluoro-2H-1,3-benzodioxol-5-yl)oxy]acetamido}bicyclo[1.1.1]pentan-1-yl)acetamide]	10 to 50
O=C(COc1cccc(Cl)c1)NC12CC(NC(=O)COc3ccc(Cl)c(F)c3)(C1)C2 [Compound 146, 2-(4-chloro-3-fluorophenoxy)-N-{3-{2-(3-chlorophenoxy)acetamido}-bicyclo[1.1.1]pentan-1-yl}acetamide]	< 10
CC(=O)O[C@@H]1CC2(NCCOc3ccc(Cl)c(F)c3)CCC1(NC(=O)COc1ccc(Cl)c(F)c1)CC2 [Compound 450, (2R)-1-[2-(4-chloro-3-fluorophenoxy)acetamido]-4-{[2-(4-chloro-3-fluorophenoxy)ethyl]amino}bicyclo[2.2.2]octan-2-yl acetate]	10 to 50
O=C(COc1cc(F)c2cn[nH]c2c1)NC12CCC(NC(=O)COc3ccc(F)cc3)(CC1)[C@@H](O)C2 [Compound 721]	< 10
O=C(COc1ccc(Cl)c(F)c1)NC12CC(NC(=O)COc3ccccc3F)(C1)C2 [Compound 411, 2-(4-chloro-3-fluorophenoxy)-N-{3-[2-(2-fluorophenoxy)acetamido]bicyclo[1.1.1]pentan-1-yl}acetamide]	10 to 50
O=C(COc1ccnc(C(F)(F)F)c1)NC12CC(NC(=O)COc3ccc4c(c3)OC(F)(F)O4)(C1)C2 [Compound 265, 2-[(2,2-difluoro-2H-1,3-benzodioxol-5-yl)oxy]-N-[3-(2-{[2-(trifluoromethyl)pyridin-4-yl]oxy}acetamido)bicyclo[1.1.1]pentan-1-yl]acetamide]	10 to 50
CS(=O)(=O)OC1CC2(NC(=O)COc3ccc(Cl)c(F)c3)CCC1(NC(=O)COc1ccc(Cl)c(F)c1)CC2 (stereo not drawn) [Compound 344, 1,4-bis[2-(4-chloro-3-fluorophenoxy)acetamido]bicyclo[2.2.2]octan-2-yl methanesulfonate]	< 10
O=C(COc1ccc(Cl)c(F)c1)NC12CC(NC(=O)OCCc3cccc(Cl)c3)(C1)C2 [Compound 165, 2-(3-chlorophenyl)ethyl {3-[2-(4-chloro-3-fluorophenoxy)-acetamido]bicyclo[1.1.1]pentan-1-yl}carbamate]	50 to 250
COc1cc(Cl)ccc1OCC(=O)NC12CCC(NC(=O)COc3ccc(Cl)c(F)c3)(CC1)[C@@H](O)C2 [Compound 793, 2-(4-chloro-3-fluorophenoxy)-N-{(2S)-4-[2-(4-chloro-2-methoxyphenoxy)acetamido]-2-hydroxybicyclo[2.2.2]octan-1-yl}acetamide]	< 10
O=C(COc1ccc(Cl)c(F)c1)NC12CC(NC(=O)[C@H](O)c3ccc(Cl)cc3)(C1)C2 [Compound 315, (2R)—N-{3-[2-(4-chloro-3-fluorophenoxy)acetamido]bicyclo[1.1.1]pentan-1-yl}-2-(4-chlorophenyl)-2-hydroxyacetamide]	500 to 2000

SMILES	EC50 [nM]
O=C(COc1ccc(Cl)c(F)c1)NC12CC(NS(=O)(=O)Cc3ccc(C(F)(F)F)cc3)(C1)C2 [Compound 426, 2-(4-chloro-3-fluorophenoxy)-N-[3-({[4-(trifluoromethyl)phenyl]methanesulfonyl}amino)bicyclo[1.1.1]pentan-1-yl]acetamide]	50 to 250
CN(CCO)C1CC2(NC(=O)COc3ccc(Cl)c(F)c3)CCC1(NC(=O)COc1ccc(Cl)c(F)c1)CC2 (stereo not drawn) [Compound 711, N,N′-{2-[(2-hydroxyethyl)(methyl)amino]bicyclo[2.2.2]octane-1,4-diyl}bis[2-(4-chloro-3-fluorophenoxy)acetamide]]	< 10
O=C(COc1ccc(Cl)c(F)c1)NC12CCC(NC(=O)COc3ccc(C(F)(F)F)nc3)(CC1)C(F)C2 (stereo not drawn) [Compound 366, 2-(4-chloro-3-fluorophenoxy)-N-[3-fluoro-4-(2-{[6-(trifluoromethyl)pyridin-3-yl]oxy}acetamido)bicyclo[2.2.2]octan-1-yl]acetamide]	10 to 50
O=C(COc1ccc(Cl)c(F)c1)NC12CCC(NC(=O)COc3ccc4ccccc4c3)(CC1)[C@@H](O)C2 [Compound 517, 2-(4-chloro-3-fluorophenoxy)-N-[(3S)-3-hydroxy-4-{2-[(naphthalen-2-yl)oxy]acetamido}bicyclo[2.2.2]octan-1-yl]acetamide]	< 10
O=C(COc1ccc(C2CC2)nc1)NC12CC(NC(=O)COc3ccc(Cl)c(F)c3)(C1)C2 [Compound 251, 2-(4-chloro-3-fluorophenoxy)-N-(3-{2-[(6-cyclopropylpyridin-3-yl)oxy]acetamido}bicyclo[1.1.1]pentan-1-yl)acetamide]	10 to 50
O=C(COc1ccc(OC(F)(F)F)cc1)NC12CCC(NC(=O)COc3ccc(Cl)cc3)(CC1)[C@@H](O)C2 [Compound 783, 2-(4-chlorophenoxy)-N-[(2S)-2-hydroxy-4-{2-[4-(trifluoromethoxy)phenoxy]acetamido}bicyclo[2.2.2]octan-1-yl]acetamide]	< 10
O=C(COc1ccc(Cl)c(F)c1)NC12CCC(NC(=O)COc3cnn(CC(F)(F)F)c(=O)c3)(CC1)C(=O)C2 [Compound 317, 2-(4-chloro-3-fluorophenoxy)-N-[3-oxo-4-(2-{[6-oxo-1-(2,2,2-trifluoroethyl)-1,6-dihydropyridazin-4-yl]oxy}acetamido)bicyclo[2.2.2]octan-1-yl]acetamide]	> 2000
O=C(COCc1ccc(OC(F)F)nc1)NC12CC(NC(=O)COc3ccc(Cl)c(F)c3)(C1)C2 [Compound 279, 2-(4-chloro-3-fluorophenoxy)-N-[3-(2-{[6-(difluoromethoxy)pyridin-3-yl]methoxy}acetamido)bicyclo[1.1.1]pentan-1-yl]acetamide]	250 to 500
O=C(COc1ccc(Cl)c(F)c1)NC12CCC(NC(=O)CNc3ccc(Cl)c(F)c3)(CC1)[C@@H](O)C2 [Compound 748, 2-(4-chloro-3-fluoroanilino)-N-{(2S)-4-[2-(4-chloro-3-fluorophenoxy)acetamido]-2-hydroxybicyclo[2.2.2]octan-1-yl}acetamide]	10 to 50
O=C(COc1ccc(Cl)c(F)c1)NC12CC(NS(=O)(=O)Cc3ccc(F)cc3)(C1)C2 [Compound 487, 2-(4-chloro-3-fluorophenoxy)-N-(3-{[(4-fluorophenyl)methanesulfonyl]amino}bicyclo[1.1.1]pentan-1-yl)acetamide]	> 2000
CS(=O)(=O)c1ccc(OCC(=O)NC23CC(NC(=O)COc4ccc(Cl)c(F)c4)(C2)C3)cc1 [Compound 127, 2-(4-chloro-3-fluorophenoxy)-N-(3-{2-[4-(methanesulfonyl)-phenoxy]acetamido}-bicyclo[1.1.1]pentan-1-yl)acetamide]	500 to 2000
O=C(COc1ccc(Cl)c(Cl)c1)NC12CC(NCC(=O)c3ccc(Cl)cc3)(C1)C2 [Compound 287, N-(3-{[2-(4-chlorophenyl)-2-oxoethyl]amino}bicyclo[1.1.1]pentan-1-yl)-2-(3,4-dichlorophenoxy)acetamide]	50 to 250
O=C(COc1ccc(F)cc1)NC12CCC(NC(=O)COc3ccc(Cl)c(Cl)c3)(CC1)[C@@H](O)C2 [Compound 581, 2-(3,4-dichlorophenoxy)-N-{(2S)-4-[2-(4-fluorophenoxy)acetamido]-2-hydroxybicyclo[2.2.2]octan-1-yl}acetamide]	< 10
O=C(COc1ccc(Cl)c(F)c1)NC12CCC(NC(=O)COc3ccc(Cl)cn3)(CC1)[C@@H](O)C2 [Compound 640, 2-(4-chloro-3-fluorophenoxy)-N-[(3S)-4-{2-[(5-chloropyridin-2-yl)oxy]acetamido}-3-hydroxybicyclo[2.2.2]octan-1-yl]acetamide]	< 10
O=C(COc1ccc(F)c(F)c1)NC12CCC(NC(=O)COc3ccc(F)c(F)c3)(CC1)[C@@H](O)C2 [Compound 615, N,N′-[(2S)-2-hydroxybicyclo[2.2.2]octane-1,4-diyl]bis[2-(3,4-difluorophenoxy)acetamide]]	< 10
O=C(COc1ccc(Cl)c(F)c1)NC12CCC(N[C@H](CCOc3ccc(Cl)cc3)C(=O)O)(CC1)C[C@@H]2O (single isomer, unassigned) [Compound 693]	500 to 2000
